Data as given in ChEMBL document CHEMBL1201862, “PubChem BioAssay data set” (2004).
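96-well plates; 48 h exposure; 5 concentrations. Endpoints by linear interpolation between flanking doses. Not reached: highest tested concentration assigned. Here, GI50 denotes the concentration required for 50% inhibition of growth.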 Activity calls are given as the source filed them. Rule as the data show it: active = GI50 up to about 1.1 µM and inactive = higher.

How the values were obtained:
Test in all cases: NCI tumour cell line growth inhibition, 48 h
[1] = tested on: M19-MEL
[2] = tested on: DMS-273
[3] = tested on: HOP-18
[4] = tested on: DMS-114
[5] = tested on: SNB-78
[6] = tested on: DLD-1
[7] = tested on: LXFL 529
[8] = tested on: RXF 631
[9] = tested on: XF498

| SMILES | GI50 [1] | GI50 [2] | GI50 [3] | GI50 [4] | GI50 [5] | GI50 [6] | GI50 [7] | GI50 [8] | GI50 [9] |
| --- | --- | --- | --- | --- | --- | --- | --- | --- | --- |
| COc1ccc(N/N=C(\CCN(C)C)c2ccccc2)cc1 | 3.82 µM (inactive) | 3 µM (inactive) | 22.1 µM (inactive) | 10.9 µM (inactive) | 12.8 µM (inactive) | 1.66 µM (inactive) | 1.6 µM (inactive) | – | – |
| CC(=O)Nc1ccc(/C=C/C(=O)c2sc(-n3nc(-c4ccccc4)cc3-c3ccccc3)nc2C)cc1 | > 10 µM (inactive) | > 10 µM (inactive) | > 10 µM (inactive) | 74.8 µM (inactive) | > 10 µM (inactive) | > 10 µM (inactive) | > 10 µM (inactive) | > 10 µM (inactive) | – |
| Cn1nc(-c2ccccc2)c2c(/C=C/c3ccccc3)onc2c1=O | > 100 µM (inactive) | – | 25.5 µM (inactive) | 98.4 µM (inactive) | 38.7 µM (inactive) | 78.9 µM (inactive) | > 100 µM (inactive) | 73.3 µM (inactive) | 26.8 µM (inactive) |
| CC(C)(C)c1cc(COc2c3sc(=S)sc3c(OCc3cc(C(C)(C)C)cc(C(C)(C)C)c3)c3sc(=S)sc23)cc(C(C)(C)C)c1 | > 100 µM (inactive) | > 100 µM (inactive) | > 100 µM (inactive) | – | – | > 100 µM (inactive) | > 100 µM (inactive) | – | > 100 µM (inactive) |
| c1cnc2c(c1)-n1cccc1C1(CCSC1)NN2 (configuration not stated) | > 100 µM (inactive) | > 100 µM (inactive) | 28.4 µM (inactive) | > 100 µM (inactive) | > 100 µM (inactive) | > 100 µM (inactive) | – | – | > 100 µM (inactive) |
| OCC1CC2C=CCC(C2)C1 (configuration not stated) | > 100 µM (inactive) | > 100 µM (inactive) | > 100 µM (inactive) | > 100 µM (inactive) | > 100 µM (inactive) | > 100 µM (inactive) | > 100 µM (inactive) | – | > 100 µM (inactive) |
| CCOC(=O)C1(Br)C(c2ccccc2)NC(=O)N(C2OC(COC(=O)c3ccccc3)C(OC(=O)c3ccccc3)C2OC(=O)c2ccccc2)C1(C)Br (configuration not stated) | 28.4 µM (inactive) | 33.5 µM (inactive) | > 100 µM (inactive) | 18.3 µM (inactive) | – | 36.4 µM (inactive) | 21.6 µM (inactive) | 15.3 µM (inactive) | – |
| COc1nc(NC2OCC(O)C(O)C2O)c(NC2OCC(O)C(O)C2O)c(=O)n1C (configuration not stated) | > 100 µM (inactive) | > 100 µM (inactive) | > 100 µM (inactive) | > 100 µM (inactive) | > 100 µM (inactive) | > 100 µM (inactive) | > 100 µM (inactive) | – | > 100 µM (inactive) |
| NC1CC(n2ccc(=O)[nH]c2=O)OC1C(O)CO (configuration not stated) | > 100 µM (inactive) | > 100 µM (inactive) | > 100 µM (inactive) | > 100 µM (inactive) | – | > 100 µM (inactive) | > 100 µM (inactive) | > 100 µM (inactive) | > 100 µM (inactive) |
| Cc1cccc(C)c1NC(=O)C(=O)CC(=O)CO | > 100 µM (inactive) | > 100 µM (inactive) | > 100 µM (inactive) | > 100 µM (inactive) | > 100 µM (inactive) | > 100 µM (inactive) | > 100 µM (inactive) | > 100 µM (inactive) | – |
| O=C(O)CN(CC(=O)O)Cc1cc(C#Cc2ccc(C#Cc3ccccc3)cc2)cc(CN(CC(=O)O)CC(=O)O)n1 | 17.5 µM (inactive) | 7.66 µM (inactive) | 33.4 µM (inactive) | 13.8 µM (inactive) | 44.3 µM (inactive) | 8.53 µM (inactive) | 27.2 µM (inactive) | – | 20.5 µM (inactive) |
| NCC(=O)OCN1C(=O)C2C3C=CC(C2C1=O)C1C2C(=O)N(COC(=O)CN)C(=O)C2C31 (configuration not stated) | 24.8 µM (inactive) | 18.2 µM (inactive) | 25.6 µM (inactive) | 20.9 µM (inactive) | 42 µM (inactive) | 24.3 µM (inactive) | 22.7 µM (inactive) | – | 17.9 µM (inactive) |
| N#CC12CCC(O)C(CC1)C2=O (configuration not stated) | > 100 µM (inactive) | 96.8 µM (inactive) | > 100 µM (inactive) | 19.4 µM (inactive) | > 100 µM (inactive) | 47.3 µM (inactive) | > 10 µM (inactive) | > 100 µM (inactive) | > 100 µM (inactive) |
| CCCCc1c2c(nc3c1CCc1cc4c(nc1-3)-c1nc3c(c(CCCC)c1CC4)CCC/C3=C\c1ccccc1)/C(=C/c1ccccc1)CCC2 | > 100 µM (inactive) | 35.2 µM (inactive) | – | 47.5 µM (inactive) | 39.4 µM (inactive) | > 100 µM (inactive) | 30.8 µM (inactive) | – | 32.5 µM (inactive) |
| COc1cc(C)c(C)c(OC(=O)c2c(C)c(C)c(OC)c(C)c2OC)c1C | 7.6 µM (inactive) | 3.94 µM (inactive) | 10.4 µM (inactive) | 3.29 µM (inactive) | 21.1 µM (inactive) | 7.31 µM (inactive) | 8.87 µM (inactive) | 10.3 µM (inactive) | 12.2 µM (inactive) |
| CC(=O)OC1=C2CC[C@@H]3C(CC[C@@]4(C)C3CC[C@@H]4OC(C)=O)[C@@]2(C)CC(C#N)C1=O (some centres not stated) | – | 20.9 µM (inactive) | – | 17.8 µM (inactive) | 26.8 µM (inactive) | 9.82 µM (inactive) | 30 µM (inactive) | – | 18.6 µM (inactive) |
| CC(C)OP(=O)(OC(C)C)/C(=N/Nc1ccc([N+](=O)[O-])cc1)NCCN/C(=N\Nc1ccc([N+](=O)[O-])cc1)P(=O)(OC(C)C)OC(C)C | 5.85 µM (inactive) | 3.7 µM (inactive) | – | 3.85 µM (inactive) | – | 4.71 µM (inactive) | 3.17 µM (inactive) | – | 3.18 µM (inactive) |
| N#CC1(c2nc3ccccc3o2)C(=O)C(=O)N(c2ccc(Cl)c(Cl)c2)C(=O)C1=O | – | > 100 µM (inactive) | > 100 µM (inactive) | – | > 100 µM (inactive) | > 100 µM (inactive) | 58.1 µM (inactive) | – | > 100 µM (inactive) |
| Cc1c(Cl)ccc2c1NC(=O)C2(O)CC(=O)c1ccc(Cl)cc1 (configuration not stated) | 6.62 µM (inactive) | 48.2 µM (inactive) | > 70.8 µM (inactive) | 11.7 µM (inactive) | > 96.6 µM (inactive) | 42.9 µM (inactive) | > 38.9 µM (inactive) | 71.1 µM (inactive) | – |
| COCN(C)c1nc(N(C)C)nc(N(C)C)n1 | > 100 µM (inactive) | > 100 µM (inactive) | 89.3 µM (inactive) | > 100 µM (inactive) | > 100 µM (inactive) | > 100 µM (inactive) | 81.5 µM (inactive) | – | – |
| CN(C)C(=S)/N=c1\ssc(=S)n1Cc1cccs1 | 3.16 µM (inactive) | – | 8.89 µM (inactive) | 2.15 µM (inactive) | 6.68 µM (inactive) | 3.82 µM (inactive) | 4.75 µM (inactive) | – | – |
| COC(=O)C(Cc1nc2ccccc2nc1O)C(=O)C(=O)Nc1ccc(OC)cc1[N+](=O)[O-] (configuration not stated) | > 100 µM (inactive) | – | – | – | > 100 µM (inactive) | – | > 100 µM (inactive) | – | > 100 µM (inactive) |
| CCNC(=O)COc1ccc(Br)cc1Br | > 100 µM (inactive) | > 100 µM (inactive) | > 100 µM (inactive) | > 100 µM (inactive) | > 100 µM (inactive) | > 100 µM (inactive) | > 100 µM (inactive) | 69.7 µM (inactive) | – |
| Cc1ccc(NC(=O)C(=O)C(C#N)c2nc(-c3ccc(-c4ccccc4)cc3)cs2)c(C)c1 (configuration not stated) | > 100 µM (inactive) | 39.6 µM (inactive) | > 100 µM (inactive) | > 100 µM (inactive) | > 100 µM (inactive) | > 100 µM (inactive) | > 100 µM (inactive) | – | – |
| Cc1ccc(NC(=O)CC(=O)N2N=C(N(CCC#N)c3cccc(C)c3)CC2c2ccccc2)cc1 (configuration not stated) | > 100 µM (inactive) | > 100 µM (inactive) | > 100 µM (inactive) | > 100 µM (inactive) | > 100 µM (inactive) | > 100 µM (inactive) | > 100 µM (inactive) | – | – |
| CC(C)N1C(C)[C@@H](c2ccccc2)O[P@@]1(=O)CC1=CCCCC1 (some centres not stated) | > 100 µM (inactive) | – | > 100 µM (inactive) | 51.4 µM (inactive) | – | > 100 µM (inactive) | > 100 µM (inactive) | – | > 100 µM (inactive) |
| C[C@]12CCC[C@H](Cl)C1(O)C[C@H](C(=O)O)CC2 (some centres not stated) | > 100 µM (inactive) | > 100 µM (inactive) | > 100 µM (inactive) | > 100 µM (inactive) | > 100 µM (inactive) | > 100 µM (inactive) | > 100 µM (inactive) | – | > 100 µM (inactive) |
| NC(CCC(=O)Nc1ccc(O)cc1)C(=O)O (configuration not stated) | – | > 100 µM (inactive) | > 100 µM (inactive) | > 100 µM (inactive) | > 100 µM (inactive) | > 100 µM (inactive) | > 100 µM (inactive) | – | > 100 µM (inactive) |
| COc1cc(/C=C\c2ccc(SC)cc2)cc(OC)c1OC | 0.0278 µM (active) | 0.0258 µM (active) | 0.0453 µM (active) | < 0.0202 µM (active) | 0.0452 µM (active) | 0.0409 µM (active) | < 0.0221 µM (active) | – | 0.0908 µM (active) |
| Nc1ccc(N)c2c1C(=O)c1c(N)ccc(N)c1C2=O | > 71.1 µM (inactive) | 39 µM (inactive) | 16.3 µM (inactive) | 30.6 µM (inactive) | 78.5 µM (inactive) | 78.7 µM (inactive) | – | – | > 54.5 µM (inactive) |
